Results as given in ChEMBL document CHEMBL1126402, “The design and biological evaluation of a series of 3-hydroxy-3-methylglutaryl coenzyme a (HMG-CoA) reductase inhibitors related to dihydromevinolin” (Bioorg Med Chem Lett, 1992).
Calls of active or inactive are those of the source. The rule behind the calls is not given here.

What was measured:
[1] = Selectivity in vivo against rat assay; NS - no significant difference between organs; type: functional, organism-based
[2] = molecular target: T1, 3-hydroxy-3-methylglutaryl-coenzyme A reductase (Rattus norvegicus, UniProt P51639); assay: Inhibition of microsomal rat liver HMG-CoA reductase
T1 sequence (P51639 whole entry): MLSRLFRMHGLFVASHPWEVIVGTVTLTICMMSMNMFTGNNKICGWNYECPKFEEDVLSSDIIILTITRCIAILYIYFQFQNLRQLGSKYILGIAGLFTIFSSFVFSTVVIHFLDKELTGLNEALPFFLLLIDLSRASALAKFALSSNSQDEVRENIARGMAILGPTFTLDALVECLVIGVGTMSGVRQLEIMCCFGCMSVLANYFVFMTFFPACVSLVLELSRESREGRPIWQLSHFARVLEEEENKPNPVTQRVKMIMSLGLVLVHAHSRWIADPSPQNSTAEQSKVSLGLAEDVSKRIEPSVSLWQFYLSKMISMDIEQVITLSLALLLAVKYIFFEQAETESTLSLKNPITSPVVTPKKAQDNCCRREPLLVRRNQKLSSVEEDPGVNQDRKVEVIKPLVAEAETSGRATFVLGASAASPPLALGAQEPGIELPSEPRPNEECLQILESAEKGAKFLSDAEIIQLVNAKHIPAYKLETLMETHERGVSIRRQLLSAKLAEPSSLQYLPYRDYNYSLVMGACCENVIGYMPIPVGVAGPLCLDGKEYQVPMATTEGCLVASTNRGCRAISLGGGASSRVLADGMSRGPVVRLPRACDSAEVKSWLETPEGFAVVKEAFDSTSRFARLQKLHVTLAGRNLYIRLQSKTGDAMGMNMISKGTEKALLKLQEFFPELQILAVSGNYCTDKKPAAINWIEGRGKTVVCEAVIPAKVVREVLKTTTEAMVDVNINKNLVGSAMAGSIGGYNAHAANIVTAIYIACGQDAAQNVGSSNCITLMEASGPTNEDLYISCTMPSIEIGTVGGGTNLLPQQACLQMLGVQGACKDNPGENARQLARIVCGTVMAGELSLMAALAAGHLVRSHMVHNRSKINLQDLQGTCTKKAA

[3] = Selectivity in vivo against rat assay; A - greater inhibition in liver than in spleen, testes, kidney; type: functional, organism-based

Row | Compound | Selectivity [1] | IC50 [2] [nM] | Selectivity [3]
1 | CCC/C(C)=C/[C@@H]1C[C@H](OC(=O)[C@@H](C)CC)[C@@H]2[C@@H](CC[C@@H]3C[C@@H](O)CC(=O)O3)[C@@H](C)C=C[C@H]2C1 | inactive | 20 | 
2 | CC[C@H](C)C(=O)O[C@H]1C[C@@H](C)C=C2C=C[C@H](C)[C@H](CC[C@@H]3C[C@@H](O)CC(=O)O3)[C@H]21 [LOVASTATIN] |  | 11 | A
3 | CCC(C)C(=O)O[C@H]1C[C@@H](C)C[C@@H]2C=C[C@H](C)[C@H](CCC(=O)C[C@@H](O)CC(=O)OC)[C@@H]12 (stereo partly specified) |  | 80 | 
4 | C/C=C\[C@@H]1C[C@H](OC(C)=O)[C@@H]2[C@@H](CC[C@@H]3C[C@@H](O)CC(=O)O3)[C@@H](C)C=C[C@H]2C1 |  | 1500 | 
5 | CCC/C(C)=C/[C@@H]1C[C@H](OC(=O)C(C)(C)CC)[C@@H]2[C@@H](CC[C@@H]3C[C@@H](O)CC(=O)O3)[C@@H](C)C=C[C@H]2C1 | inactive | 8 | 
6 | CC/C=C/[C@@H]1C[C@H](OC(=O)C(C)(C)CC)[C@@H]2[C@@H](CC[C@@H]3C[C@@H](O)CC(=O)O3)[C@@H](C)C=C[C@H]2C1 |  | 15 | 
7 | CCC(C)C(=O)O[C@H]1C[C@@H](C)C[C@@H]2C=CC[C@H](CC[C@@H]3C[C@@H](O)CC(=O)O3)[C@@H]12 (stereo partly specified) |  | 1500 | 
8 | C/C=C/[C@@H]1C[C@H](OC(=O)C(C)(C)CC)[C@@H]2[C@@H](/C=C/[C@@H]3C[C@@H](O)CC(=O)O3)[C@@H](C)C=C[C@H]2C1 |  | 100 | 
